Test results published in patent US9592223B2, “Small molecule inhibitors of MALT1” (Cornell University, priority 2012, dated 2017).
“Also recorded” adds a separate entry of the source.

Columns and labels:
NF-κB reporter activity = experiment: NF-κB reporter assay in HBL-1 cells; format: cell-based, human
Source text: Antigen receptor-mediated NF-κB signaling partly depends on MALT1 activity (Ruefli-Brasse et al., 2003; Ruland et al., 2003). […] First, 293T cells were transfected with the NF-κB reporter vector (NF-κB)5-luc2CP-pGL4 (harboring 5 copies of the NF-κB consensus response element and a destabilized Firefly luciferase) and TK-pRL control together with plasmids expressing BCL10 and either MALT1^WT or MALT1^C464A. […] HBL-1 was transfected with the reporter construct (NF-κB)5-luc2CP-pGL4 and TK-pRL control.
Reporter assays were performed in 293T cells seeded at a density of 2×10^5 cells per well of a 12-well dish. 100 ng of (NF-κB)5-Luc2CP-pGL4 and 10 ng of TK-Renilla internal control plasmid were cotransfected along with 25 ng of the indicated plasmids (MIGR1-MALT1^WT or MIGR1-MALT1^C464A and pcDNA4-Flag-Bcl10) using Lipofectamine 2000 (Invitrogen). Lysates were submitted to dual luciferase assays following manufacturer's protocol (Promega). In HBL-1, 5 μg of (NF-κB)5-Luc2CP-pGL4 and 50 ng of TK-Renilla internal control plasmid per 5×10^6 cells were cotransfected using nucleofection (Amaxa, Lonza, Basel, Switzerland). Forty-eight hours after transfection, cells were plated at a density of 5×10^4 cells per well of a 24-well plate and treated as indicated. Lysates were submitted to dual luciferase assays following manufacturer's protocol (Promega).

[1] = test system: GCB-DLBCL cell lines OCI-Ly7 and OCI-Ly1; experiment: Growth inhibition, GCB-DLBCL cell lines; format: cell-based, human; conditions: increasing concentrations, single dose, 48 hr
Description: Endogenous MALT1 activity was evaluated by Western blotting for A20, BCL10 and CYLD; and NF-κB activation, by phospho-IκB-α and total IκB-α. Dependence on MALT1 proteolytic activity for proliferation was tested by 50[…]μM Z-VRPR-FMK treatment for 48 hr. […] The U2932 and HLY1 ABC-DLBCL cell lines harbor mutations in TAK1 and A20, which activate NF-κB signaling downstream of MALT1.
Cell proliferation was determined by ATP quantification using a luminescent method (CellTiter-Glo, Promega, Madison, Wis.) and Trypan blue dye-exclusion (Sigma, St. Louis, Mo.). Cell viability in drug-treated cells was normalized to their respective controls (fractional viability) and results are given as 1-fractional viability. […]
DLBCL cell lines were grown in exponential growth conditions during the 48 hr of treatment. Cell proliferation was determined by ATP quantification using a luminescent method (CellTiter-Glo, Promega, Madison, Wis.) and Trypan blue dye-exclusion (Sigma, St. Louis, Mo.). Luminescence was measured using the Synergy4 microplate reader (BioTek Instruments, Winooski, Vt.). Standard curves for each cell line were calculated by plotting the cell number (determined by the Trypan blue method) against their luminescence values and number of cells was calculated accordingly. […]

[2] = test system: NF-κB signaling gene signatures; experiment: Gene expression profiling and GSEA in HBL-1 and TMD8 cell lines; format: cell-based, human; conditions: 8 hr, HBL-1 200 nM, TMD8 500 nM
Description: The impact of MI-2 on NF-κB signaling was further characterized by gene expression profiling. […] Z-VRPR-FMK was previously shown to attenuate the NF-κB signature in ABC-DLBCL cell lines (Hailfinger et al., 2009). […] GSEA was next performed using two independent ABC-DLBCL NF-κB gene expression signatures derived from either OCI-Ly3 and OCI-Ly10 or HBL-1 cell lines.
RNA integrity was determined using the RNA 6000 Nano LabChip Kit on an Agilent 2100 Bioanalyzer (Agilent Technologies, Santa Clara, Calif.). Samples were processed following Illumina recommendations and cRNA was hybridized to the HumanHT-12 v4 Expression BeadChip (Illumina, San Diego, Calif.). Arrays were scanned on the iScan system. Data pre-processing and quality control were performed using GenomeStudio. The data were log2-transformed combined with quantile normalization (Du et al., 2008). GEO accession number GSE40003.
In order to determine the biological significance of the results, enrichment tests with respect to sets of related genes were carried out. To this end, we used GSEA (Gene Set Enrichment Analysis) software, and datasets were pre-ranked by fold change value (Subramanian et al., 2005). The p-values for each gene-set were computed on the basis of 1,000 iterations and multiple hypotheses testing correction for FDR calculation (Storey and Tibshirani, 2003).

nuclear c-REL and p65 = experiment: Western blots for c-REL and p65 in nuclear extracts of HBL-1 and TMD8 cells; format: cell-based, human; conditions: 24 hr, 200 nM for HBL-1 and 500 nM for TMD8
Description: MALT1 mediates c-REL translocation to the nucleus following BCR stimulation (Ferch et al., 2007). […] This selectivity towards c-REL had also been previously shown in MALT1 knockout mice and after MALT1 cleavage inhibition by the MALT1 blocking peptide Z-VRPR-FMK (Ferch et al., 2009; Ferch et al., 2007; Hailfinger et al., 2011).
Equal amounts of total protein (20-75 μg) were separated on sodium dodecyl sulfate-polyacrylamide gel electrophoresis (SDS-PAGE), and electrotransferred onto nitrocellulose membranes. Membranes were incubated with primary antibodies (MALT1, BCL-10, CYLD from Santa Cruz Biotechnologies, Santa Cruz, Calif.; A20 from eBioscience, San Diego, Calif.; phospho-IκB-α, IκB-α, c-REL, RELB from Cell Signaling, Danvers, Mass. and α-Tubulin from Sigma), followed by secondary antibodies conjugated to horseradish peroxidase, which were detected by chemiluminescence (Pierce, Thermo Scientific, Rockford, Ill.).

[3] = test system: primary human non-GCB DLBCL cells; experiment: Primary human DLBCL cells ex vivo, non-GCB cases, Trypan blue; format: cell-based; conditions: 0.8 μM, 48 hr
Description: After 48 hr exposure, cell number and viability were determined using Trypan blue.
Patient de-identified tissues were obtained in accordance with the guidelines and approval of the Weill Cornell Medical College Review Board. Patient samples were processed as previously described (Cerchietti et al., 2010). Briefly, single cell suspensions from lymph node biopsies were obtained by physical disruption of tissues followed by cell density gradient separation (Fico/Lite LymphoH, Atlanta Biologicals, Lawrenceville, Ga.). Cell number and viability were determined by Trypan blue exclusion. Primary DLBCL cells were cultured in 96-well plates. Cells were grown in advanced RPMI medium with 20% FBS supplemented with antibiotics for 48 hours. […] After 48 hr of exposure, viability was determined by using Trypan blue (Sigma). All samples were normalized to their own replicate control. Statistical significance was calculated using paired T-test.

**Q.** With COCCOc1nc(-c2ccc(Cl)c(Cl)c2)n(-c2ccc(NC(=O)CCl)cc2)n1 [MI-2] as the molecule, how does the “reduction in NF-κB reporter activity” value (NF-κB reporter activity; HBL-1, 8 hr) read?
**A.** 20%

**Q.** What about the “reduction in NF-κB reporter activity” value (NF-κB reporter activity; HBL-1, 24 hr) of the same molecule?
**A.** 50%

**Q.** And the growth inhibition [1]?
**A.** resistant

**Q.** What about the “GSEA of ABC-DLBCL NF-κB gene expression signatures” value [2] of the same molecule?
**A.** significant enrichment of these NF-κB gene sets among genes downregulated

**Q.** What about the “GSEA of Z-VRPR-FMK signature” value [2] of the same molecule?
**A.** significantly enriched among genes downregulated after MI-2-treatment

**Q.** What about the “nuclear c-REL (Western blot)” value (nuclear c-REL and p65) of the same molecule?
**A.** clear reduction of nuclear c-REL

**Q.** What about the “nuclear p65 (Western blot)” value (nuclear c-REL and p65) of the same molecule?
**A.** did not affect p65 levels

**Q.** And the “response of cell number and viability” value [3]?
**A.** two of the non-GCB cases responded; also recorded: One of the non-GCB did not respond
